From patent publication US9758492B2, “IDO inhibitors” (Bristol-Myers Squibb Company, priority 2013, dated 2017)

Target: IDO (Homo sapiens, UniProt P14902)
Assay: LLE_IDO_ABS_DR (IDO assay)

Sequence of IDO (P14902 whole entry): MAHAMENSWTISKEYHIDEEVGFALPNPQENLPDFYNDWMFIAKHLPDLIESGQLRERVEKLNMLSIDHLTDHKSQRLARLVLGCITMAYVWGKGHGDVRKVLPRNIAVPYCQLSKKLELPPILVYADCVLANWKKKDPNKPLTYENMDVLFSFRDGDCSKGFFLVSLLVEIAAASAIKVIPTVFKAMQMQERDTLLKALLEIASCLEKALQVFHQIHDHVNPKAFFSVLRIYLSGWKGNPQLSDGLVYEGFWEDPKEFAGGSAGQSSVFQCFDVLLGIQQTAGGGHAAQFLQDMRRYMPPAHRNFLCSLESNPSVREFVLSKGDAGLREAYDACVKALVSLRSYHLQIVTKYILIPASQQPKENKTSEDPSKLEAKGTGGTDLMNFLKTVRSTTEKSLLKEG

Row | SMILES | IC50 [nM]
1 | CC(C)CN(CC(C)C)c1ccc(-c2ccccc2-c2nnn[nH]2)cc1NC(=O)Nc1cccc(F)c1F [Example 263, 1-(2,3-difluorophenyl)-3-(4-(diisobutylamino)-2′-(1H-tetrazol-5-yl)-[1,1′-biphenyl]-3-yl)urea] | 7.97
2 | CC(C)CN(CC(C)C)c1ccc(-c2ccccc2-c2nnn[nH]2)cc1NC(=O)Nc1ccc(N=[N+]=[N-])cc1 [Example 285, 1-(4-azidophenyl)-3-(4-(diisobutylamino)-2′-(1H-tetrazol-5-yl)-[1,1′-biphenyl]-3-yl)urea] | 2.28
3 | O=C(Nc1cc(-c2ccccc2-c2nnn[nH]2)ccc1N(CCCC(F)(F)F)Cc1ccc(Cl)cc1)Nc1ccccc1C(F)(F)F [Example 321, 1-(4-((4-chlorobenzyl)(4,4,4-trifluorobutyl)amino)-2′-(1H-tetrazol-5-yl)-[1,1′-biphenyl]-3-yl)-3-(2-(trifluoromethyl)phenyl)urea] | 610
4 | Cc1ccc(NC(=O)Nc2cc(-c3ccccc3C(=O)O)ccc2N(CC(C)C)C2CCC2)cc1 [Example 183, 4′-(cyclobutyl(isobutyl)amino)-3′-(3-(p-tolyl)ureido)-[1,1′-biphenyl]-2-carboxylic acid] | 20
5 | Cc1cc(NC(=O)Nc2cc(-c3ccccc3-c3nnn[nH]3)ccc2N2CCC(c3ccccc3)C2)on1 (racemic) [Example 372, (±)-1-(3-Methylisoxazol-5-yl)-3-(4-(3-phenylpyrrolidin-1-yl)-2′-(1H-tetrazol-5-yl)-[1,1′-biphenyl]-3-yl)urea] | 1940
6 | Cc1ccc(NC(=O)Nc2cc(-c3ccccc3-c3nnn[nH]3)ccc2N(CC2CC2)CC2CC2)cc1 [Example 66, 1-(4-(bis(cyclopropyl-methyl)amino)-2′-(1H-tetrazol-5-yl)biphenyl-3-yl)-3-p-tolylurea] | 30
7 | Cc1ccc(NC(=O)Nc2cc(-c3ccccc3C(=O)O)ccc2N(CC2CC2)CC2CC2)cc1 [Example 67, 4′-(bis (cyclopropylmethyl)amino)-3′-(3-p-tolylureido)biphenyl-2-carboxylic acid] | 350
8 | CCn1nc(C)c(-c2ccc(N(CC(C)C)CC(C)C)c(NC(=O)Nc3ccc(C)cc3)c2)c1C(=O)O [Example 102, 4-(4-(diisobutylamino)-3-(3-p-tolylureido)phenyl)-1-ethyl-3-methyl-1H-pyrazole-5-carboxylic acid] | 210
9 | CC(C)CN(c1ccc(-c2ccccc2C(=O)O)cc1NC(=O)Nc1ccc(F)cc1F)C(C)C [Example 157, 3′-(3-(2,4-difluorophenyl)ureido)-4′-(isobutyl(isopropyl)amino)biphenyl-2-carboxylic acid] | 20
10 | CC1CC(C)CN(c2ccc(-c3ccccc3-c3nnn[nH]3)cc2NC(=O)Nc2ccccc2F)C1 (centres unmarked) [Example 237] | 1290
11 | Cc1ccc(NC(=O)Nc2cc(-c3ccccc3-c3nnn[nH]3)ccc2N(CCC2CC2)CC(C)C)cc1 [Example 129, 1-(4-((2-cyclopropylethyl) (isobutyl)amino)-2′-(1H-tetrazol-5-yl)biphenyl-3-yl)-3-p-tolylurea] | 9.53
12 | CC(C)CN(CC(C)C)c1ccc(-c2ccccc2-c2nnn[nH]2)cc1NC(=O)Nc1cccc(N(C)C)c1 [Example 262, 1-(4-(diisobutylamino)-2′-(1H-tetrazol-5-yl)-[1,1′-biphenyl]-3-yl)-3-(3-(dimethylamino)phenyl)urea] | 190
13 | CC(C)CN(c1ccc(-c2ccccc2C(=O)O)cc1NC(=O)Nc1ccc(C(F)(F)F)cc1)C1CCC(F)(F)CC1 [Example 513] | 10
14 | CCCCN(CCCC)c1ccc(-c2sccc2C(=O)O)cc1NC(=O)Nc1ccc(C)cc1 [Example 91, 2-(4-(dibutylamino)-3-(3-p-tolylureido)phenyl)thiophene-3-carboxylic acid] | 60
15 | CC(C)CN(CCC1CC1)c1ccc(-c2sccc2C(=O)O)cc1NC(=O)Nc1ccccc1F [Example 136, 2-(4-((2-cyclopropylethyl) (isobutyl)amino)-3-(3-(2-fluorophenyl)ureido)phenyl)thiophene-3-carboxylic acid] | 70
16 | Cc1ccc(NC(=O)Nc2cc(-c3ccccc3-c3nnn[nH]3)ccc2N2CCC(c3ccccc3)C2)cn1 (racemic) [Example 368, (±)-1-(6-Methylpyridin-3-yl)-3-(4-(3-phenylpyrrolidin-1-yl)-2′-(1H-tetrazol-5-yl)-[1,1′-biphenyl]-3-yl)urea] | 2500
17 | CC(C)CN(CC(C)C)c1ccc(-c2ccccc2-c2nnn[nH]2)cc1NC(=O)Nc1ccc(F)c(Br)c1 [Example 258, 1-(3-bromo-4-fluorophenyl)-3-(4-(diisobutylamino)-2′-(1H-tetrazol-5-yl)-[1,1′-biphenyl]-3-yl)urea] | 90
18 | O=C(Nc1ccc(C(F)(F)F)cc1F)Nc1cc(-c2ccccc2-c2nnn[nH]2)ccc1N1CCCc2ccccc21 [Example 364, 1-(4-(3,4-Dihydroquinolin-1(2H)-yl)-2′-(1H-tetrazol-5-yl)-[1,1′-biphenyl]-3-yl)-3-(2-fluoro-4-(trifluoromethyl)phenyl)urea] | 4670
19 | O=C(Nc1ccc(OC(F)(F)F)cc1)Nc1cc(-c2ccccc2-c2nnn[nH]2)ccc1N1CC2CC1CN2Cc1ccccc1 (centres unmarked) [Example 318, 1-(4-(5-benzyl-2,5-diazabicyclo[2.2.1]heptan-2-yl)-2′-(1H-tetrazol-5-yl)-[1,1′-biphenyl]-3-yl)-3-(4-(trifluoromethoxy)phenyl)urea] | 120
20 | O=C(Nc1ccc(C2CC2)c(F)c1)Nc1cc(-c2ccccc2-c2nnn[nH]2)ccc1N(CCC(F)(F)F)Cc1ccccn1 [Example 354, 1-(4-cyclopropyl-3-fluorophenyl)-3-(4-((pyridin-2-ylmethyl)(3,3,3-trifluoropropyl)amino)-2′-(1H-tetrazol-5-yl)-[1,1′-biphenyl]-3-yl)urea] | 120
21 | Cc1ccc(NC(=O)Nc2cc(-c3ccccc3C(=O)NS(=O)(=O)C(F)(F)F)ccc2N(CC(C)C)CC(C)C)cc1 [Example 234] | 9370
22 | CC(C)CN(c1ccc(-c2cc(F)ccc2C(=O)O)cc1NC(=O)Nc1ccccc1C(F)(F)F)C1CCCCC1 [Example 163, 4′-(cyclohexyl (isobutyl)amino)-5-fluoro-3′-(3-(2-(trifluoromethyl)phenyl)ureido) biphenyl-2-carboxylic acid] | 1030
23 | CC(C)CN(CC(C)C)c1ccc(-c2ccccc2-c2nnn[nH]2)cc1NC(=O)NC1CC1 [Example 139, 1-cyclopropyl-3-(4-(diisobutylamino)-2′-(1H-tetrazol-5-yl)biphenyl-3-yl)urea] | 1980
24 | CCN(CC(C)(C)C)c1ccc(-c2cc(F)ccc2C(=O)O)cc1NC(=O)Nc1ccc(C)cc1 [Example 113, 4′-(ethyl(neopentyl)amino)-5-fluoro-3′-(3-p-tolylureido)biphenyl-2-carboxylic acid] | 400
25 | CC(C)CN(CC(C)C)c1ccc(-c2ccccc2-c2nnn[nH]2)cc1NC(=O)NC1CCCCC1 [Example 140, 1-cyclohexyl-3-(4-(diisobutylamino)-2′-(1H-tetrazol-5-yl)biphenyl-3-yl)urea] | 2960
26 | Cc1ccc(NC(=O)Nc2cc(-c3ccccc3C(=O)O)ccc2N(CC(C)C)CC2CC2)cc1 [Example 93, 4′-((cyclopropylmethyl) (isobutyl)amino)-3′-(3-p-tolylureido) biphenyl-2-carboxylic acid] | 80
